Measured values from patent US20140024663A1, “ATB(0,+) AMINO ACID TRANSPORTER AS A DRUG TARGET FOR TREATMENT OF ESTROGEN RECEPTOR-POSITIVE BREAST CANCER” (GEORGIA HEALTH SCIENCES UNIVERSITY RESEARCH INSTITUTE, INC., priority 2012, published 2014).

Assays:
MB231 cells = assay: ASNS and CHOP mRNA by RT-PCR as readout for amino acid deprivation; assay type: cell-based, human; details: SLC6A14-negative MB231, α-MT 2.5 mM, 24, 48 or 72 h
Experimental: (§1) FIGS. 6A to 6C. Effects of SLC6A14 blockade with α-MT in breast cancer cells. In FIG. 6A, MCF10A (a non-malignant mammary epithelial cell line), MCF7 (an ER-positive breast cancer cell line), and MB231 (an ER-negative breast cancer cell line) cells were treated with or without 2.5 mM α-MT for 24, 48, or 72 h and then used for analysis of asparagine synthetase (ASNS) and CHOP mRNA levels. In FIG. 6B, MCF7, MB231 and MCF10A cells were treated with or without 2.5 mM α-MT for 48 h and then used for immunocytochemical analysis of the constitutively expressed LC-3. In FIG. 6C, MCF7 cells were treated with (“b” and “c”) or without (“a”) α-MT (2.5 mM) for 48 h and then used for electron microscopy. Arrows indicate sequestration of cytoplasm and organelles in pre-autophagosomes and autophagosome, and the asterisk indicates condensed chromatin. N, nucleus.
(§2) RT-PCR. Total RNA was isolated using TRIZOL™ (Invitrogen). 2 μg of RNA was reverse transcribed using the GeneAmp PCR System (Applied Biosystems, Branchburg, N.J.). PCR reaction was performed under optimal conditions specific for each of the primer pairs. GAPDH (glyceraldehyde-3-phosphate dehydrogenase) or HPRT1 (hypoxanthine/guanine phosphoribosyl transferase-1) were used as internal controls. PCR products were size-fractionated on agarose gel, stained with ethidium bromide and imaged using Alpha Imager (Santa Clara, Calif.). […]

MCF10A cells = assay: as above; assay type: cell-based, human; details: SLC6A14-negative MCF10A, α-MT 2.5 mM, 24, 48 or 72 h
Experimental: as §1, §2

mTOR in MCF7 cells = assay: mTOR activity by western blot (phosphorylation of S6 and S6 kinase); assay type: cell-based, human; details: MCF7, α-MT 2.5 mM, 24, 48 or 72 h
Experimental: (§3) FIGS. 9A to 9D. Influence of α-MT on mTOR activity In FIG. 9A, MCF7 and MB231 cells were treated without or with α-MT (2.5 mM) for 24 h, 48 h, or 72 h, and then the cell lysates were used for western blot. Influence of α-MT with or without 3-MA on cell death. In FIG. 9B, MCF7, MB231, and MCF10A cells were treated for 48 h without or with α-MT (2.5 mM), 3-MA (10 mM), or α-MT (2.5 mM) plus 3-MA (10 mM), and then analyzed for cell death by propidium iodide (PI) staining and FACS-based cell cycle analysis. In FIG. 9C, MCF7 cells were treated for 48 h without or with α-MT (2.5 mM), 3-MA (10 mM), or α-MT (2.5 mM) plus 3-MA (10 mM), and then analyzed for apoptotic cell death by annexin V labeling. In FIG. 9D, MCF7 and MB231 cells were treated without or with 2.5 mM α-MT for 24 h, 48 h, or 72 h. Cell lysates were then used for western blot analysis of lamin A degradation product using an antibody that recognizes specifically the proteolytic cleavage product. β-Actin was used as an internal control.

[1] = test system: mTOR in SLC6A14-negative cells (MB231); assay: as above; assay type: cell-based, human; details: α-MT 2.5 mM, 24, 48 or 72 h
Experimental: as §3

MCF7 cells = assay: Xenograft in nude mice with estrogen pellets, tumor growth; assay type: in vivo, Balb/c nude mice; details: MCF7 (ER-positive) in the presence of estrogen administration, α-MT in drinking water 2 mg/ml
Experimental: FIGS. 10A to 10D. In vivo efficacy of α-MT in the treatment of ER-positive breast cancer. ZR75.1 (FIG. 10A), MCF7 (FIG. 10B), and MB-231 (FIG. 10C) cells were injected subcutaneously (sc) into Balb/c nude mice (10×10^6 cells per injection site). For MCF7 cells, slow-releasing estrogen pellets were implanted to support the tumor growth. For each cell line, the control group received water with sucrose and the treatment group received α-MT (2 mg/ml) in water with sucrose. Tumor size was measured periodically. NS, not statistically significant (p>0.05); *, p<0.005; two-tailed unpaired Student's t test. In FIG. 10D, Balb/c nude mice were divided into two groups; the control group received water with sucrose and the treatment group received α-MT (2 mg/ml) in water with sucrose for 2 weeks. Mice were then bled and α-MT in plasma was determined by HPLC. Xenograft in nude mice. Human breast cancer cells (ZR75.1, MCF7, and MB231) were injected s.c. close to the lower mammary gland on the right side of Balb/c nude mice (10×10^6 cells per injection site). Only for MCF7 cells, slow-releasing estrogen pellets were implanted to support the tumor growth. Implantation of estrogen pellets was done as follows. […] Tumor size in control and treatment groups was measured periodically by caliper and […] was calculated using the formula (width^2×length)/2.

[2] = Measurement of α-MT in mouse plasma by HPLC; assay type: in vivo, Balb/c nude mice; details: mice, two weeks of administration in drinking water (2 mg/ml)
Experimental: FIGS. 10A to 10D. In vivo efficacy of α-MT in the treatment of ER-positive breast cancer. ZR75.1 (FIG. 10A), MCF7 (FIG. 10B), and MB-231 (FIG. 10C) cells were injected subcutaneously (sc) into Balb/c nude mice (10×10^6 cells per injection site). For MCF7 cells, slow-releasing estrogen pellets were implanted to support the tumor growth. For each cell line, the control group received water with sucrose and the treatment group received α-MT (2 mg/ml) in water with sucrose. Tumor size was measured periodically. NS, not statistically significant (p>0.05); *, p<0.005; two-tailed unpaired Student's t test. In FIG. 10D, Balb/c nude mice were divided into two groups; the control group received water with sucrose and the treatment group received α-MT (2 mg/ml) in water with sucrose for 2 weeks. Mice were then bled and α-MT in plasma was determined by HPLC.
Measurement of α-MT in mouse plasma. Balb/c nude mice were divided into two groups; the control group received water with sucrose and the treatment group received α-MT (2 mg/ml) in water with sucrose for 2 weeks. Mice were then bled and α-MT in plasma was determined by HPLC as described by Laich et al (Laich et al., 2002, Clin Chem; 48:579-581).

CC(N)(Cc1c[nH]c2ccccc12)C(=O)O (racemic) [α-MT, α-methyl-DL-tryptophan]
levels of asparagine synthetase mRNA and CHOP mRNA (MB231 cells): not | levels of asparagine synthetase mRNA and CHOP mRNA (MCF10A cells): not | mTOR inhibition: phosphorylation of S6 and S6 kinase (mTOR in MCF7 cells): decreased phosphorylation | mTOR activity [1]: not affected | tumor growth in xenograft (MCF7 cells): did not affect the growth | plasma concentration of α-MT [2]: 8.5 ± 0.5 µM
